Measured values: US20180325840A1, “COMPOSITIONS AND METHODS FOR PREVENTING OR TREATING FATTY PANCREAS OR AMELIORATING PANCREAS DISEASES CAUSED BY FATTY PANCREAS, DIABETES MELLITUS OR OTHER RELATED DISORDERS” (NATIONAL DEFENSE EDUCATION AND RESEARCH FOUNDATION, priority 2015, published 2018)

Key:
Type in all cases: in vivo
B6 mice [1] = experiment: Serum (plasma) triglyceride (TG) in high-fat diet mice; details: for TG (plasma triglyceride): 4 weeks of administration
Experimental: (§1) The experimental animals employed were B6 mice. The number of test animals in each group of the pre-test was four or more, and the number of test animals in each group of the confirmation test was twelve or more. Male mice having a weight of 18 to 23 g were bred in an animal room with a normal light and dark cycle (7:00 am to 7:00 pm being the bright period, and the rest being the dark period) at a temperature of 23±2° C. and a relative humidity of 55±15%. After the animals were purchased from Lesco Biotech Co., Ltd. (Taipei) and housed at the National Defense Animal Center, the animal experiments were conducted following the Experimental Guide of National Health Research Institute. First, the animals were fed with 3-5 grams of general diet daily, and the water was supplied infinitely. After 1 to 2 weeks of breeding, the healthy state was observed. The body weight was recorded once a week.
(§2) The test animals were randomly grouped into blank control (Blank), high-fat control (HFD), positive control (PS), and test group. The blank control was given a normal diet; the high-fat control was given a high-fat diet; the positive control was given a high-fat diet and tube fed with silymarin (5 mg/kg/day) (Iranian Journal of Pharmaceutical Research (2016), 15 (3): 493-500; Life Sciences 75 (2004) 2167-2180; and Pharm Biol. 2016 Jul. 8:1-6); and the test group was given a high-fat diet and tube fed with the test ingredient individually.
(§3) The blank control was fed with a normal diet arbitrarily for 12 weeks. The high-fat control, the positive control, and the test group were fed with a high-fat diet arbitrarily for 12 weeks. After 8 weeks of feeding, the blank control and the high-fat control were tube fed with deionized water once a day. The positive control was tube fed with silymarin once a day. The test group was tube fed with test compound(s) once a day for 4 weeks.
Before the start of the test and at the 8th and 12th week after the start of the test, blood was collected from the cheek or heart. All the animals were weighed and then sacrificed at the end of the test, and blood was collected from the cheek or heart again. The blood samples of mice were allowed to stand at room temperature for 1 hour to coagulate, and then centrifuged at 15,700×g by a frozen centrifuge at 4° C. for 5 minutes to separate the serum.
1.4.1 Analysis of Serum Triglyceride (TG) and Total Cholesterol (TCHO, TC)
Triglyceride (TG) and total cholesterol (TCHO, TC) in the serum were measured by the automatic blood biochemical analyzer.
(§4) All data were expressed as mean±standard deviation (SD), and the test results were calculated using the ANOVA test method to determine whether there was a statistically significant difference by using the Statistical Package of the Social Science program (Version 13, SPSS Inc.) software package. Subsequently, post hoc test least significant difference method was used to perform multiple comparisons to confirm the significant differences between the groups. The significant difference between the averages of the groups was p<0.05.

B6 mice [2] = experiment: Homeostasis model assessment of insulin resistance (HOMA-IR) in high-fat diet mice; details: for HOMA-IR: 4 weeks of administration; for effect on insulin resistance (in words): single test compound
Experimental: as §1, §2, §3
1.4.5 Analysis of Biochemical Functions of the Pancreas: Homeostasis Model Assessment of Insulin Resistance (HOMA-IR)
The mice were fasted to collect the blood at the end of the test (at the twelfth week), and the concentrations of blood glucose and insulin were measured and calculated according to the following formula: […]
as §4

B6 mice [3] = experiment: Fasting insulin concentration (ELISA) in high-fat diet mice; details: for fasting insulin concentration: 4 weeks of administration; for effect on fasting insulin concentration (in words): single test compound
Experimental: as §1, §2, §3
1.4.4 Analysis of Biochemical Functions of the Pancreas: Analysis of Fasting Insulin Concentration
At the end of the test (at the twelfth week), the mice were fasted to collect the blood following the operation instructions of the mouse ultrasensitive insulin ELISA kit (ALPCO).
as §4

B6 mice [4] = experiment: Intraperitoneal glucose tolerance test (IPGTT) in high-fat diet mice; details: for AUC of IPGTT: 2 g/kg glucose IP, blood glucose vs. time, 4 weeks of administration; for effect on sugar tolerance (IPGTT, in words): single test compound
Experimental: as §1, with “Male mice having a weight of 18 to 23 g were bred in an animal room with a normal light and dark cycle (7:00 am to 7:00 pm being the bright period, and the rest being the dark period) at a temperature of 23±2° C. and a relative humidity of 55±15%.” left out
The test animals were randomly grouped into blank control (Blank), high-fat control (HFD), positive control (PS), and test group.
as §3
1.4.3 Analysis of Biochemical Functions of the Pancreas: Intraperitoneal Glucose Tolerance Test (IPGTT)
The mice were moved into a clean cage and fasted overnight. There was no food or feces at the feeding funnel or the bottom of the clean cage to ensure that the animals may get drinking water at all times. The body weight of the mice was measured, and the volume of the glucose solution required for intraperitoneone (IP) injection was calculated (based on a concentration of 250 mg/mL and 2 g of glucose per kg of mouse weight, the volume (μl) required would be 8× body weight (g)). The mice were moved out and injected intraperitoneally with an appropriate amount of glucose solution, and the injection time was recorded. Blood samples were taken from the tail of the mice at 0, 15, 30, 60, 120 and 150 minutes after the glucose solution was injected. The concentration of blood glucose was measured, and the blood glucose analysis was performed using the Roche's ACCU-CHEK Active blood glucose meter.
as §4

B6 mice [5] = experiment: Triglyceride (TG) and total cholesterol (TC) in pancreatic tissue of high-fat diet mice; details: 4 weeks of administration
Experimental: as §1, §2, §3
1.4.6 Analysis of Triglyceride (TG) and Total Cholesterol (TCHO, TC) in Pancreatic Tissue
After the mice were sacrificed, the pancreas was taken out and weighed to compare the ratios of pancreas weight to body weight. The remaining pancreas was frozen and preserved, and the contents of triglyceride and the total cholesterol in the pancreas were measured.
as §4

B6 mice [6] = experiment: Blood glucose analysis (GLU) in high-fat diet mice; details: for GLU: fasted overnight, 4 weeks of administration; for effect on GLU (in words): single test compound
Experimental: as §1, §2, §3
1.4.2 Analysis of Biochemical Functions of the Pancreas: Blood Glucose Analysis (GLU)
Blood glucose analysis was performed with Roche's ACCU-CHEK Active blood glucose meter. One day before blood collection, mice were fasted overnight. The code card of the blood glucose test paper was inserted into the blood glucose meter, and then the blood glucose test paper was inserted. After the blood drop pattern appeared on the meter, a drop of blood was taken from in vein at the cheek of the mouse with a buccal needle and then dropped into the blood glucose test paper. The blood glucose data shown on the blood glucose meter were recorded.
as §4

SMILES | TG (plasma triglyceride) (B6 mice [1]; 2.5 mg/kg) [mg/dL] | HOMA-IR (B6 mice [2]; 2.5 mg/kg) | effect on insulin resistance (in words) (B6 mice [2]) | fasting insulin concentration (B6 mice [3]; 2.5 mg/kg) [ng/mL] | effect on fasting insulin concentration (in words) (B6 mice [3]) | AUC of IPGTT (B6 mice [4]; 2.5 mg/kg) [g·h/dL] | effect on sugar tolerance (IPGTT, in words) (B6 mice [4]) | pancreatic TC (B6 mice [5]; 2.5 mg/kg tube fed once a day) [mg/g pancreatic tissue] | pancreatic TG (B6 mice [5]; 2.5 mg/kg tube fed once a day) [mg/g pancreatic tissue] | GLU (B6 mice [6]; 2.5 mg/kg) [mg/dL] | TG (plasma triglyceride) (B6 mice [1]; 1.5 mg/kg) [mg/dL] | HOMA-IR (B6 mice [2]; 1.5 mg/kg) | fasting insulin concentration (B6 mice [3]; 1.5 mg/kg) [ng/mL] | AUC of IPGTT (B6 mice [4]; 1.5 mg/kg) [g·h/dL] | pancreatic TC (B6 mice [5]; 1.5 mg/kg tube fed once a day) [mg/g pancreatic tissue] | pancreatic TG (B6 mice [5]; 1.5 mg/kg tube fed once a day) [mg/g pancreatic tissue] | GLU (B6 mice [6]; 1.5 mg/kg) [mg/dL] | effect on GLU (in words) (B6 mice [6]) | further results
O=c1c(-c2ccc(O)cc2)coc2c([C@@H]3O[C@H](CO)[C@@H](O)[C@H](O)[C@H]3O)c(O)ccc12 [puerarin] | 166.7 ± 22.0 | 0.4 ± 0.2 | significantly reduce | 0.9 ± 0.3 | significantly reduce | 45.1 ± 11.2 | significantly reduce | 4.0 ± 1.2 | 17.3 ± 13.4 | 172.3 ± 22.2 |  |  |  |  |  |  |  |  | 
COc1ccc([C@@H]2CC(=O)c3c(O)cc(O)cc3O2)cc1O [hesperitin] | 190.1 ± 25.9 |  |  |  |  |  |  | 4.4 ± 0.7 | 5.7 ± 1.6 |  |  |  |  |  |  |  |  |  | 
O=C(CCc1ccc(O)cc1)c1c(O)cc(O)cc1O[C@@H]1O[C@H](CO)[C@@H](O)[C@H](O)[C@H]1O [phloridzin] | 148.3 ± 31.4 | 0.6 ± 0.2 |  | 1.1 ± 0.3 |  | 51.3 ± 8.9 |  | 3.3 ± 1.1 | 23.3 ± 24.0 | 216.2 ± 26.4 |  |  |  |  |  |  |  |  | 
O=C1C[C@@H](c2ccc(O)c(O)c2)Oc2cc(O)cc(O)c21 [eriodictyol] | 135.4 ± 43.4 | 0.6 ± 0.2 | significantly reduce | 1.1 ± 0.4 | significantly reduce | 41.9 ± 5.9 | significantly reduce | 3.5 ± 0.6 | 4.5 ± 2.8 | 219.0 ± 35.6 |  |  |  |  |  |  |  |  | TG (plasma triglyceride) (B6 mice [1]; 5.0 mg/kg): 143.2 ± 15.1 mg/dL; effect on triglyceride in plasma (in words) (B6 mice [1]; as compared with the high-fat control): significantly reduce
OC[C@H]1O[C@H](O[C@]2(CCl)O[C@H](CCl)[C@@H](O)[C@@H]2O)[C@H](O)[C@@H](O)[C@H]1Cl [sucralose] |  |  | significantly reduce |  | significantly reduce |  | significantly reduce |  |  |  | 126.9 ± 43.3 | 0.4 ± 0.2 | 1.3 ± 0.5 | 44.2 ± 3.7 | 4.2 ± 0.5 | 8.1 ± 5.6 | 128.7 ± 19.3 | significantly reduce | TG (plasma triglyceride) (B6 mice [1]; 7.5 mg/kg): 186.9 ± 17.2 mg/dL; pancreatic TC (B6 mice [5]; 7.5 mg/kg tube fed once a day): 3.1 ± 0.4 mg/g pancreatic tissue; pancreatic TG (B6 mice [5]; 7.5 mg/kg tube fed once a day): 5.2 ± 2.1 mg/g pancreatic tissue
O=C1NS(=O)(=O)c2ccccc21 [saccharin] |  |  | significantly reduce |  | significantly reduce |  | significantly reduce |  |  |  | 142.6 ± 34.6 | 0.3 ± 0.3 | 1.3 ± 1.1 | 41.9 ± 6.2 | 3.0 ± 0.8 | 4.7 ± 2.9 | 92.0 ± 9.6 | significantly reduce | 
OC[C@@H](O)[C@@H](O)[C@H](O)[C@H](O)CO [mannitol] |  |  | significantly reduce |  | significantly reduce |  | significantly reduce |  |  |  | 158.9 ± 48.9 | 0.3 ± 0.1 | 1.1 ± 0.4 | 42.7 ± 1.7 | 3.7 ± 1.0 | 12.6 ± 7.5 | 112.2 ± 32.0 | significantly reduce | TG (plasma triglyceride) (B6 mice [1]; 4.5 mg/kg): 180.1 ± 46.7 mg/dL; TG (plasma triglyceride) (B6 mice [1]; 7.5 mg/kg): 163.9 ± 31.9 mg/dL; pancreatic TC (B6 mice [5]; 4.5 mg/kg tube fed once a day): 3.3 ± 0.7 mg/g pancreatic tissue; pancreatic TG (B6 mice [5]; 4.5 mg/kg tube fed once a day): 9.6 ± 5.1 mg/g pancreatic tissue; pancreatic TC (B6 mice [5]; 7.5 mg/kg tube fed once a day): 3.1 ± 0.3 mg/g pancreatic tissue; pancreatic TG (B6 mice [5]; 7.5 mg/kg tube fed once a day): 4.7 ± 4.0 mg/g pancreatic tissue
